For assay [1], the target named is T1, human recombinant 5-HT2C receptor (Homo sapiens, UniProt P28335).
T1 sequence (P28335 33-458): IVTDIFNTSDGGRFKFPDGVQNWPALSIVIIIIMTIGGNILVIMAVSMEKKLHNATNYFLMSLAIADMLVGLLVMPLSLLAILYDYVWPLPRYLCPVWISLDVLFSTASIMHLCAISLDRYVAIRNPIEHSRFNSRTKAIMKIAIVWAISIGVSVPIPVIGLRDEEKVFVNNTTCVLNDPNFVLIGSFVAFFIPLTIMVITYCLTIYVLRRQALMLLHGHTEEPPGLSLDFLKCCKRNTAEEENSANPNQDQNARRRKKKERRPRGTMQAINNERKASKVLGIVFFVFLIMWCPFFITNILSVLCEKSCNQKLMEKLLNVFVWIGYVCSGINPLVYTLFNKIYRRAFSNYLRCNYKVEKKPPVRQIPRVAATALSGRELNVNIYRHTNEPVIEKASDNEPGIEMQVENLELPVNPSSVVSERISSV
Briefly: Affinity for 5HT2 receptor binding sites, h5-HT2C, [3H]mesulergine. The note with it: CHO h5-HT2C membranes.

The target of another assay is 5-HT2B receptor (Homo sapiens, UniProt P41595). The experiment in a line: Affinity for 5HT2 receptor binding sites, h5-HT2B, [3H]mesulergine. The note with it: CHO h5-HT2B membranes.
The next assay deals with rat 5-HT7a receptor (Rattus norvegicus, UniProt P32305). Briefly: Affinity for 5-HT7 receptor binding sites, radioligand binding with [3H]5-CT. The note with it: membranes of HEK-293 cells with rat 5-HT7a, 1 nM [3H]5-CT. As to the method: The affinity of the compounds described in this invention for the 5-HT7 receptor binding site was evaluated by single competition radioligand binding assay. The assay was performed on membranes prepared from HEK-293 cells that had been subjected to stable transfection with the rat 5-HT7a receptor (GB: NM022938). Cells were scraped from the culture plates, suspended in Tris-HCl 50 mM pH 7.5 and collected through centrifugation (1000 rpm for 5 min). The cell pellets were homogenized (Polytron, 15 s, setting 5) in 50 mM Tris-HCl (pH 7.5), 5 mM EDTA. Following centrifugation (15,000 rpm for 25 min), membranes (135 μg protein/mL) were resuspended in the same buffer and incubated for 60 min at RT with 1 nM [^3H]5-CT in the presence of increasing concentration of test compounds. Nonspecific binding was defined in the presence of 10 μM 5-HT. Incubation was stopped by rapid filtration using the cell harvester (Packard). Radioactivity was counted in a TopCount-NXT (Packard). Experiments were conducted in triplicate.

The target in the next assay is 5-HT2A receptor (Homo sapiens, UniProt P28223). The experiment in a line: Affinity for 5-HT2A receptor binding sites, radioligand binding with [3H]ketanserin. The note with it: read-out: Ki 5-HT2A, rat cortex membranes (assay 2) or NIH3T3 h5-HT2A membranes (assay 3), table does not say which.

Counter-ions that a name gives are not always drawn.

5-HT2B receptor, sequence (P41595 whole entry): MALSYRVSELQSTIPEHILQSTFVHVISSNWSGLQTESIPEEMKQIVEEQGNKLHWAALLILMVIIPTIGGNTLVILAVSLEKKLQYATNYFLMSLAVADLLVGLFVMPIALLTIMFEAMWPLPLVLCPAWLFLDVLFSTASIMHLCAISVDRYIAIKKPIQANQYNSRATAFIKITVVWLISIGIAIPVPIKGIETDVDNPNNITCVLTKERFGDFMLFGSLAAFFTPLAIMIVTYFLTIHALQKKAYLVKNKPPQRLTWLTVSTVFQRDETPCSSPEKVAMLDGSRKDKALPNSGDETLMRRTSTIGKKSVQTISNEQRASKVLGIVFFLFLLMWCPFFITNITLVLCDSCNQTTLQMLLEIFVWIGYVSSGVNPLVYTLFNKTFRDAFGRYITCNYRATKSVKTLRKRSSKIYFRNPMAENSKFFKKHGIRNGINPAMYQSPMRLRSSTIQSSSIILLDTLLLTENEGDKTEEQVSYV
rat 5-HT7a receptor, sequence (P32305 whole entry): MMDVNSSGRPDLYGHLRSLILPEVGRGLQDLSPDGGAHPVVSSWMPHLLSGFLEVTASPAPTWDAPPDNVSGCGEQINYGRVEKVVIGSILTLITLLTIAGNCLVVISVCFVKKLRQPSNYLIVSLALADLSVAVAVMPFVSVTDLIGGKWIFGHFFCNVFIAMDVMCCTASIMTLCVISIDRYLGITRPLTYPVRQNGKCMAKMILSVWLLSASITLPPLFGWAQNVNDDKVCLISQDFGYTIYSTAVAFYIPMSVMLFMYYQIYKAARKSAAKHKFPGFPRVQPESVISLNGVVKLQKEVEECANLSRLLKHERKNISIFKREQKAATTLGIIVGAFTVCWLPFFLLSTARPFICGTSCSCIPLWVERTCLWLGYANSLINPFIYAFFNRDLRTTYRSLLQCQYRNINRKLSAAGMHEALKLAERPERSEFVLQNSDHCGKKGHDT
Method for 5-HT2B receptor: Sigmoidal inhibition curves were generated and fitted by nonlinear regression analysis (GraphPad Prism).
Receptor binding was performed using the human recombinant 5-HT2A (GB: X57830), 5-HT2B (GB: Z36748) and 5-HT2C (GB: M81778) receptors. The affinity of the compounds for the 3 different human 5-HT2 receptor subtypes was evaluated by competitive radioligand binding assays using [^3H]ketanserin (h5-HT2A) or [^3H]mesulergine (h5-HT2B and h5-HT2C). The assays were performed on membranes prepared from NIH3T3 stably transfected with h5-HT2A or CHO stably transfected with h5-HT2B and h5-HT2C.

What is called Ki is a measure of affinity in units of concentration, obtained from inhibition or displacement. Consider `CCC(C)c1nc2c(c(-c3ccc(OC)cc3)n1)CNCC2` (stereo not drawn) [Example 44, 2-sec-Butyl-4-(4-methoxy-phenyl)-5,6,7,8-tetrahydro-pyrido[4,3-d]pyrimidine], for which the Ki was 1 µM in assay [1], 0.5 µM on 5-HT2B receptor, over 10 µM on rat 5-HT7a receptor and 0.4 µM at 5-HT2A receptor.

For the compound `CCC(C)c1nc2c(c(-c3ccc(OC(F)(F)F)cc3)n1)CNCC2` (stereo not drawn) [Example 45, 2-sec-Butyl-4-(4-trifluoromethoxy-phenyl)-5,6,7,8-tetrahydro-pyrido[4,3-d]pyrimidine], the Ki (in assay [1]; at 5-HT2B receptor; on rat 5-HT7a receptor; on 5-HT2A receptor) was over 10 µM throughout.

In the case of `Cc1nc2c(c(-c3ccc(Cl)cc3)n1)CCNCC2` [Example 51, 4-(4-Chloro-phenyl)-2-methyl-6,7,8,9-tetrahydro-5H-pyrimido[4,5-d]azepine], the Ki in assay [1] is 9 µM; at 5-HT2B receptor, 0.14 µM; at rat 5-HT7a receptor, over 10 µM; at 5-HT2A receptor, 0.47 µM.

On to `Cc1nc2c(c(-c3ccccc3)n1)CCNCC2` [Example 52, 2-Methyl-4-phenyl-6,7,8,9-tetrahydro-5H-pyrimido[4,5-d]azepine], for which the Ki is 9 µM in assay [1], 1.15 µM at 5-HT2B receptor, over 10 µM on rat 5-HT7a receptor and 0.725 µM on 5-HT2A receptor.

As for `Cc1nc2c(c(-c3cccc(Cl)c3)n1)CCNCC2` [Example 53, 4-(3-Chloro-phenyl)-2-methyl-6,7,8,9-tetrahydro-5H-pyrimido[4,5-d]azepine], the Ki in assay [1] was over 10 µM; at 5-HT2B receptor, over 10 µM; at rat 5-HT7a receptor, over 10 µM; at 5-HT2A receptor, 1 µM.

On to `Cc1ccc(-c2nc(C(C)C)nc3c2CCCNC3)cc1` [Example 66, 2-Isopropyl-4-p-tolyl-6,7,8,9-tetrahydro-5H-pyrimido[4,5-c]azepine hydrochloride], for which the Ki in assay [1] was found to be 0.145 µM; on 5-HT2B receptor, 0.03 µM; on rat 5-HT7a receptor it was 0.3 µM; on 5-HT2A receptor, 0.008 µM.

Consider `COc1ccc(-c2nc(C(C)C)nc3c2CCCNC3)cc1` [Example 67, 2-Isopropyl-4-(4-methoxy-phenyl)-6,7,8,9-tetrahydro-5H-pyrimido[4,5-c]azepine], for which the Ki stood at 0.495 µM in assay [1], 0.08 µM on 5-HT2B receptor, 5.4 µM at rat 5-HT7a receptor and 0.056 µM on 5-HT2A receptor.

Consider `CC(C)c1nc2c(c(-c3ccccc3)n1)CCCNC2` [Example 68, 2-Isopropyl-4-phenyl-6,7,8,9-tetrahydro-5H-pyrimido[4,5-c]azepine], for which the Ki in assay [1] was 7.1 µM; at 5-HT2B receptor it was 0.66 µM; on rat 5-HT7a receptor, over 10 µM; on 5-HT2A receptor, 0.08 µM.

Consider `c1ccc(Cc2nc3c(c(-c4ccccc4)n2)CCN(Cc2ccccc2)C3)cc1` [Example 72, 2,7-Dibenzyl-4-phenyl-5,6,7,8-tetrahydro-pyrido[3,4-d]pyrimidine], for which the Ki in assay [1] is over 10 µM; on 5-HT2B receptor it was over 10 µM; on rat 5-HT7a receptor it was over 10 µM; on 5-HT2A receptor, 0.13 µM.

As to `COc1ccc(-c2nc(Cc3ccccc3)nc3c2CCN(Cc2ccccc2)C3)cc1` [Example 73, 2,7-Dibenzyl-4-(4-methoxy-phenyl)-5,6,7,8-tetrahydro-pyrido[3,4-d]pyrimidine], the Ki was over 10 µM in assay [1], over 10 µM at 5-HT2B receptor, over 10 µM on rat 5-HT7a receptor and 0.14 µM on 5-HT2A receptor.

`CC(C)c1nc2c(c(-c3ccc(F)cc3)n1)CCN(Cc1ccccc1)C2` [Example 74, 7-Benzyl-4-(4-fluoro-phenyl)-2-isopropyl-5,6,7,8-tetrahydro-pyrido[3,4-d]pyrimidine]: the Ki was over 10 µM in assay [1], 1.9 µM at 5-HT2B receptor, over 10 µM on rat 5-HT7a receptor and 0.047 µM at 5-HT2A receptor.

Take `CC(C)c1nc2c(c(-c3ccccc3)n1)CCN(Cc1ccccc1)C2` [Example 75, 7-Benzyl-2-isopropyl-4-phenyl-5,6,7,8-tetrahydro-pyrido[3,4-d]pyrimidine]: the Ki is over 10 µM in assay [1], 3 µM on 5-HT2B receptor, 5 µM at rat 5-HT7a receptor and 0.07 µM on 5-HT2A receptor.

As to `COc1ccc(-c2nc(Cc3ccccc3)nc3c2CCNC3)cc1` [Example 79, 2-Benzyl-4-(4-methoxy-phenyl)-5,6,7,8-tetrahydro-pyrido[3,4-d]pyrimidine], the Ki is 0.9 µM in assay [1], 0.435 µM on 5-HT2B receptor, 0.3 µM at rat 5-HT7a receptor and 0.115 µM on 5-HT2A receptor.

In the case of `CC(C)c1nc2c(c(-c3ccccc3)n1)CCNC2` [Example 81, 2-Isopropyl-4-phenyl-5,6,7,8-tetrahydro-pyrido[3,4-d]pyrimidine], the Ki in assay [1] is 6 µM; on 5-HT2B receptor, 0.45 µM; at rat 5-HT7a receptor, over 10 µM; on 5-HT2A receptor it was 0.025 µM.

On to `CC(C)c1nc2c(c(-c3ccc(F)cc3)n1)CCN(C)C2` [Example 84, 4-(4-Fluoro-phenyl)-2-isopropyl-7-methyl-5,6,7,8-tetrahydro-pyrido[3,4-d]pyrimidine hydrochloride], for which the Ki in assay [1] was 5 µM; on 5-HT2B receptor, 0.4 µM; on rat 5-HT7a receptor it was over 10 µM; at 5-HT2A receptor, 0.014 µM.

Take `CC(C)c1nc2c(c(-c3ccccc3)n1)CCN(C)C2` [Example 85, 2-Isopropyl-7-methyl-4-phenyl-5,6,7,8-tetrahydro-pyrido[3,4-d]pyrimidine]: the Ki in assay [1] was over 10 µM; at 5-HT2B receptor it was 1.15 µM; on rat 5-HT7a receptor, over 10 µM; on 5-HT2A receptor, 0.082 µM.

Regarding `Cc1cc(-c2nc(C(C)C)nc3c2CCN(Cc2ccccc2)C3)cs1` [Example 86, 7-Benzyl-2-isopropyl-4-(5-methyl-thiophen-3-yl)-5,6,7,8-tetrahydro-pyrido[3,4-d]pyrimidine hydrochloride], the Ki in assay [1] is over 10 µM; on 5-HT2B receptor, 4.1 µM; on rat 5-HT7a receptor, 9 µM; at 5-HT2A receptor it was 0.1 µM.

With `CC(C)c1nc2c(c(-c3ccsc3)n1)CCN(Cc1ccccc1)C2` [Example 87, 7-Benzyl-2-isopropyl-4-thiophen-3-yl-5,6,7,8-tetrahydro-pyrido[3,4-d]pyrimidine hydrochloride], the Ki in assay [1] is over 10 µM; on 5-HT2B receptor it was 2 µM; at rat 5-HT7a receptor it was over 10 µM; at 5-HT2A receptor, 0.6 µM.

As to `Cc1cc(-c2nc(C(C)C)nc3c2CCNC3)cs1` [Example 88, 2-Isopropyl-4-(5-methyl-thiophen-3-yl)-5,6,7,8-tetrahydro-pyrido[3,4-d]pyrimidine hydrochloride], the Ki in assay [1] is 0.185 µM; on 5-HT2B receptor, 0.06 µM; at rat 5-HT7a receptor, 0.55 µM; on 5-HT2A receptor, 0.013 µM.

For `CC(C)c1nc2c(c(-c3ccsc3)n1)CCNC2` [Example 89, 2-Isopropyl-4-thiophen-3-yl-5,6,7,8-tetrahydro-pyrido[3,4-d]pyrimidine hydrochloride], the Ki was 1.4 µM in assay [1], 0.04 µM on 5-HT2B receptor, over 10 µM on rat 5-HT7a receptor and 0.025 µM on 5-HT2A receptor.

In the case of `Cc1cc(-c2nc(C(C)C)nc3c2CCN(C)C3)cs1` [Example 90, 2-Isopropyl-7-methyl-4-(5-methyl-thiophen-3-yl)-5,6,7,8-tetrahydro-pyrido[3,4-d]pyrimidine hydrochloride], the Ki amounted to 1 µM in assay [1], 0.13 µM at 5-HT2B receptor, 2.3 µM on rat 5-HT7a receptor and 0.017 µM at 5-HT2A receptor.

Turning to `CC(C)c1nc2c(c(-c3ccsc3)n1)CCN(C)C2` [Example 91, 2-Isopropyl-7-methyl-4-thiophen-3-yl-5,6,7,8-tetrahydro-pyrido[3,4-d]pyrimidine hydrochloride], the Ki was 9 µM in assay [1], 0.2 µM at 5-HT2B receptor, over 10 µM at rat 5-HT7a receptor and 0.075 µM at 5-HT2A receptor.

As for `CC(C)c1nc(-c2ccc(F)cc2)c2c(n1)C(C)CN(Cc1ccccc1)C2` (stereo not drawn) [Example 92, 6-Benzyl-4-(4-fluoro-phenyl)-2-isopropyl-8-methyl-5,6,7,8-tetrahydro-pyrido[4,3-d]pyrimidine], the Ki in assay [1] was over 10 µM; at 5-HT2B receptor it was over 10 µM; on rat 5-HT7a receptor, over 10 µM; on 5-HT2A receptor it was 0.3 µM.

As for `CC(C)c1nc(-c2ccc(F)c(Cl)c2)c2c(n1)C(C)CN(Cc1ccccc1)C2` (stereo not drawn) [Example 93, 6-Benzyl-4-(3-chloro-4-fluoro-phenyl)-2-isopropyl-8-methyl-5,6,7,8-tetrahydro-pyrido[4,3-d]pyrimidine], the Ki (in assay [1]; on 5-HT2B receptor; at rat 5-HT7a receptor; at 5-HT2A receptor) was over 10 µM in each case.
